According to patent publication US11834414B2, “1-methyl-4-[(4-phenylphenyl)sulfonylmethyl]cyclohexyanol and 1-methyl-4-[[4-(2-pyridyl)phenyl]sulfonylmethyl]cyclohexanol compounds and their therapeutic use” (Modern Biosciences Limited, priority 2018, dated 2023):

Columns and labels:
[1] = system: Thp1 human monocytic cells; assay: Thp1 Monocyte ATP Production Assay; assay type: cell-based; conditions: Thp1 cells, 24 hour incubation, ATPLite; 9-point range 10 μM to 10 nM, mean of 2 independent experiments
Experimental: In vitro potency of test compounds was determined by incubation with Thp1 human monocytic cells and subsequent determination of Adenosine TriPhosphate (ATP) levels using firefly luciferase.
ATP is present in all metabolically active cells. When cells lose integrity, their ability to synthesise ATP is rapidly lost. […] See, e.g., Kang et al., 2015; Jiang et al., 2013. Levels of ATP can be monitored using a system based on firefly (Photinus pyralis) luciferase (see, e.g., Auld et al., 2009) using commercially available kits. A system known as
ATPlite™ was using to measure effects of the test compounds on cellular viability in vitro. This one-step assay system is an adenosine triphosphate (ATP) monitoring system based on the production of light caused by the reaction of ATP from the cells with added luciferase and D-luciferin, as illustrated in the reaction scheme below:
The emitted light is proportional to the ATP concentration.
Thp1 cells were plated at 112500 cells per well in 125 μL RPMI-1640 (no glucose) with 1% FBS in 96-well plates. Test compounds were prepared as 100 mM solutions in DMSO. These stock solutions were diluted in DMSO and then diluted 1000× in culture medium (RPMI) before being added directly to the wells so as to give the desired final compound concentration. After a 24 hour incubation at 37° C./5% CO2, ATPLite™ (Perkin Elmer) was added to each well (1:10 v/v, 10 μL). The plate was then incubated at room temperature for 5 minutes and the emitted light was quantified on Viewlux with a measurement time of 0.3 seconds and binning 4×4.
The average results for each test compound were expressed as a percent (%) of the average control value reflecting cell viability. The average values across the concentrations tested were then plotted and the IC50 for was calculated by fitting the data to a 4-parameter IC50 equation using software from Graf it (Erithacus Software). Each experiment was repeated twice and the data are presented as the mean IC50 from both experiments.

rat hepatocytes = assay: Rat hepatocyte stability; assay type: in vitro ADME; conditions: 1 μM, 60 minute incubation
Experimental: (§1) Metabolic stability of test compounds was measured by determination of the rate of disappearance of the compound when incubated in the presence of rat or human hepatocytes, a primary source of the most important enzymes (cytochrome P450s) involved in drug metabolism. Study of drug stability in the presence of primary hepatocytes is accepted as a valuable model permitting rapid prediction of in vivo drug stability.
(§2) Rat or human hepatocytes were obtained from a commercial source and viability was assessed using a trypan blue solution prior to use. Test compounds (final concentration 1 μM, 0.1% DMSO, 0.9% acetonitrile) or a marker (diclofenac or diltiazem, final assay concentration 1 μM, 0.1% DMSO, 0.9% acetonitrile) were incubated with pooled hepatocytes for a 60 minute period and samples removed at up to 6 time points and analysed by LC-MS/MS for the presence/amount of test compounds.
(§3) Each compound was incubated for 0, 5, 15, 30, 45, or 60 minutes. The reactions were stopped by the addition of methanol containing an internal standard (1 μM Tolbutamide) at the appropriate time points, mixed and placed at −20° C. for ≥1 hour to quench and allow protein to precipitate. All samples were centrifuged (2500×g, 20 minutes, 4° C.). The aliquots were analysed using LC-MS/MS. Reactions were performed in duplicate at 37° C.
(§4) Data were processed, and the results plotted as In(concentration) vs. time. The elimination rate constant (slope of the regression line, k) was calculated using the following formula, where C(t) is the concentration at time t and C(0) is the starting concentration:
(§5) The half-life (t1/2) was calculated using the following formula: […]
(§6) The intrinsic clearance (CIint) was calculated using the following formula, where [cell] is the hepatocyte concentration in the assay: […]

human hepatocytes = assay: Human hepatocyte stability; assay type: in vitro ADME; conditions: human hepatocytes, 1 μM, 60 minute incubation
Experimental: as §1, §2, §3, §4, §5, §6

CYP2C9 = CYP2C9 (Homo sapiens (Human), UniProt P11712); assay: Human Cytochrome P450 Inhibition Assay (Bactosomes); assay type: in vitro ADME; conditions: recombinant Bactosomes, 10 minutes, 37° C.
Chain of CYP2C9 (P11712 whole entry): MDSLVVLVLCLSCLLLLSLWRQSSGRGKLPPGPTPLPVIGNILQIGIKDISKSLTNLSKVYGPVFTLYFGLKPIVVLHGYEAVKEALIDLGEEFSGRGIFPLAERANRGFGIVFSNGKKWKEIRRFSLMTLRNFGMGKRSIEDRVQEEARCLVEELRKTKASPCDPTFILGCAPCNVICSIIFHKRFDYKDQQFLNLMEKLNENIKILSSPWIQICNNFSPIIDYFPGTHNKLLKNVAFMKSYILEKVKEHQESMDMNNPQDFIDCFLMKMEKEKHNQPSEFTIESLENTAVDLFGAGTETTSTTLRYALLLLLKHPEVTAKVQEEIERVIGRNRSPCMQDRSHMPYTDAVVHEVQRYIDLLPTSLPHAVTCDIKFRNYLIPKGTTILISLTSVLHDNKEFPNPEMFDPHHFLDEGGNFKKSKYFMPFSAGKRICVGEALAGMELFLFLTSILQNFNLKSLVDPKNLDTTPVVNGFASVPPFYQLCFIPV

CYP2C19 = CYP2C19 (Homo sapiens (Human), UniProt P33261); assay: as above; assay type: in vitro ADME; conditions: recombinant Bactosomes, 10 minutes, 37° C.
Chain of CYP2C19 (P33261 whole entry): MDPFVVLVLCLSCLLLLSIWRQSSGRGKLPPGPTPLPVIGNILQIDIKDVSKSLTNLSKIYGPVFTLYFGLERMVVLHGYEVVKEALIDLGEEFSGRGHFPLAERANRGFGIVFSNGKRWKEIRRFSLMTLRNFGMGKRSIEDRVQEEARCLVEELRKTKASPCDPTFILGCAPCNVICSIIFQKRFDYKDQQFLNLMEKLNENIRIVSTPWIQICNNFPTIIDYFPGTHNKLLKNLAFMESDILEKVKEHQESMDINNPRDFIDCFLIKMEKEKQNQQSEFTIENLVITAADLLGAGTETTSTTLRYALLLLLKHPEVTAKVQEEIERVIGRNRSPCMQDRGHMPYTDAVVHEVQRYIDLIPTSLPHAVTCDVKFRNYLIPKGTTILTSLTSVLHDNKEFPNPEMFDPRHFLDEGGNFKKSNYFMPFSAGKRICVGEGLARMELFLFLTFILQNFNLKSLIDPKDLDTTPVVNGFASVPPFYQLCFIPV

CYP2D6 = CYP2D6 (Homo sapiens (Human), UniProt P10635); assay: as above; assay type: in vitro ADME; conditions: recombinant Bactosomes, 10 minutes, 37° C.
Chain of CYP2D6 (P10635 whole entry): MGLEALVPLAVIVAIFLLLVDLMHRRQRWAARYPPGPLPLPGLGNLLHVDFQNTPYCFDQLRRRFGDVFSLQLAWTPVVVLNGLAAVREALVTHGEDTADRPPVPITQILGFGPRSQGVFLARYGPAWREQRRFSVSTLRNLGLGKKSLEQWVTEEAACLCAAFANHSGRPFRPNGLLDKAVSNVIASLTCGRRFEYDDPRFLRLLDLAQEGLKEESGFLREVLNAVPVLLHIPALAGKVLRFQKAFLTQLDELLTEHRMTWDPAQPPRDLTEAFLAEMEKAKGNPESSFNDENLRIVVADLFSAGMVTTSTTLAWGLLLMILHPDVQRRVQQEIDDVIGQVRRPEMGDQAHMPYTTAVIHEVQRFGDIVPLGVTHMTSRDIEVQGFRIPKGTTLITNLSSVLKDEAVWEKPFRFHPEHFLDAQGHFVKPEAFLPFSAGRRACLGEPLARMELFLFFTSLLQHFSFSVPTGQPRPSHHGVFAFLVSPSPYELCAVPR

CYP3A4 = CYP3A4 (Homo sapiens (Human), UniProt P08684); assay: as above; assay type: in vitro ADME; conditions: recombinant Bactosomes, 10 minutes, 37° C.
Chain of CYP3A4 (P08684 whole entry): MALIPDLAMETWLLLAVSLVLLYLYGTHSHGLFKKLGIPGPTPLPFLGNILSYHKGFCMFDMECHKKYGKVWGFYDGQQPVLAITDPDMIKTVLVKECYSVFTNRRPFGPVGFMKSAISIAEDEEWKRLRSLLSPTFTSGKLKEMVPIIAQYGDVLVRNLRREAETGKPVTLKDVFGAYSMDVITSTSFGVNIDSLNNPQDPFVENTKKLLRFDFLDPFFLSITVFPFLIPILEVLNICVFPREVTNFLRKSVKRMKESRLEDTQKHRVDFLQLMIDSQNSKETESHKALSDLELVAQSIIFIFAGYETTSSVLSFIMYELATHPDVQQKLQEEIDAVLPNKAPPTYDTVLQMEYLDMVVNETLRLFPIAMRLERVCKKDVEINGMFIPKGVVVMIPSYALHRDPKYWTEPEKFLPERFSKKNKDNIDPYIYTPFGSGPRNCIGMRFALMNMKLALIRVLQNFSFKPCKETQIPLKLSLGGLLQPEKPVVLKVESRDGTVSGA

[2] = system: collagen-induced arthritis in DBA/1j mice; assay: Mouse Collagen-Induced Arthritis; assay type: in vivo; conditions: 10 mg/kg/day, once daily for 14 days, arthritic index vs control
Experimental: Seven- to eight-week-old male DBA/1j mice were used for all procedures. Animals were housed in groups of 10, and were maintained at 21° C.±2° C. on a 12-hour light/dark cycle with food and water ad libitum. Complete Freund's adjuvant (CFA) was prepared by emulsifying bovine type II collagen at 4 mg/mL with a 4 mg/mL suspension of Mycobacterium tuberculosis H37Ra in Incomplete Freund's Adjuvant (IFA) (0.85 mL paraffin oil and 0.15 mL mannide monooleate) in a 1:1 (v/v) ratio. All mice were immunised subcutaneously with 200 μg of bovine type II collagen in CFA. 21 days later, all mice were immunised subcutaneously with 100 μg of bovine type II collagen in IFA. The mice started to develop signs and symptoms of arthritis following the ‘booster’ immunisation.
For macroscopic assessment of arthritis, the following signs were monitored in each paw of each mouse three times per week and summed to generate the Arthritic Index (AI) (the maximum AI for one animal is 16): • 0=no visible effects of arthritis. • 1=oedema and/or erythema of 1 digit. • 2=oedema and/or erythema of 2 digits. • 3=oedema and/or erythema of more than 2 digits. • 4=severe arthritis of entire paw and digits.
Animals were sorted into treatment groups with a mean arthritic index of 2.5 and then dosed once daily for 14 days with compound: by oral gavage for test compounds, or by subcutaneous injection at a dose of 10 mg/kg for the positive control, etanercept. After completion of the experiment, the mice were sacrificed.
The data were analysed by generating an average of the arthritic index across each treatment group. The mean arthritic index was then compared to the arthritic index of control (untreated) animals using the following formula to generate a percentage inhibition of disease.

CYP1A2 = CYP1A2 (Homo sapiens (Human), UniProt P05177); assay: Human Cytochrome P450 Inhibition Assay (Bactosomes)
Chain of CYP1A2 (P05177 whole entry): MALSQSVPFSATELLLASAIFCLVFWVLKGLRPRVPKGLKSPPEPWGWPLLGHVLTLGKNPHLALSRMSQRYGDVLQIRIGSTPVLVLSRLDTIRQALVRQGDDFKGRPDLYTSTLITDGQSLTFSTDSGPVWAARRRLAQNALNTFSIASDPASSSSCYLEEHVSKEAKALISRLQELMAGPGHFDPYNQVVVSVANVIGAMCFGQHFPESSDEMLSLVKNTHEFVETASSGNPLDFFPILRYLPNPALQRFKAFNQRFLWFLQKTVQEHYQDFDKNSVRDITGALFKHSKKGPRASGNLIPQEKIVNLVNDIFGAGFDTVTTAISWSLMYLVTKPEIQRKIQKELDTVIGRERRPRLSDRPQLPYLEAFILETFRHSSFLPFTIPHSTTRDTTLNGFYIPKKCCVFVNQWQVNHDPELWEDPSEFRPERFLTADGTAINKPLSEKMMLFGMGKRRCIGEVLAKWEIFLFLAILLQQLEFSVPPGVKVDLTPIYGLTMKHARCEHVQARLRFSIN

## C[C@]1(O)CC[C@@H](NS(=O)(=O)c2ccc(-c3ccc(F)cc3F)cc2)CC1 [ABD899, reference compound]
[1]
  IC50: 0.2 µM
Rat hepatocytes
  Rat Clint (μL/min/million cells): 57 μL/min/million cells
  Rat t1/2: 0.4 h
Human hepatocytes
  Human Clint (uL/min/million cells): 9 uL/min/million cells
  Human t1/2: 2.48 h
CYP2C9
  IC50: 3.9 µM
CYP2C19
  IC50: 7.3 µM
CYP2D6
  IC50: 45.3 µM
CYP3A4
  IC50: 21.6 µM
[2]
  % inhibition of disease: 77%
CYP1A2
  IC50: > 25 µM
